Where two headings read alike, the source gives them in different places.
Tests used:
Pyricularia oryzae = assay type: cell-based; conditions: 7 days after inoculation
Colleotrichum truncatum = experiment: Activity against Colleotrichum truncatum in the microtiterplate test; assay type: cell-based; conditions: 168 h, read-out: Observed efficacy
Alternaria solani = conditions: 4 ppm; 7 days after inoculation
Fusarium culmorum = experiment: Activity against Fusarium culmorum in the microtiterplate test; assay type: cell-based; conditions: 0.063 ppm; 7 days after inoculation
[1] = 4 ppm, 7 days after inoculation

Fc1ccc([C@]2(Cn3cncn3)O[C@H]2c2ccccc2Cl)cc1 (racemic) [Epoxiconazol, (2RS,3SR)-1-[3-(2-chlorophenyl)-2,3-epoxy-2-(4-fluorophenyl)propyl]-1H-1,2,4-triazole]
Observed efficacy (Pyricularia oryzae; 0.063 ppm): 4% | Observed efficacy (Pyricularia oryzae; 1 ppm): 40%

CC(C)OC(=O)N[C@H](C(=O)N[C@H](C)c1nc2ccc(F)cc2s1)C(C)C [Benthivalicarb, isopropyl {(S)-1-[(1R)-1-(6-fluorobenzothiazol-2-yl)-ethylcarbamoyl]-2-methylpropyl}carbamate]
inhibition of growth at 4 ppm (Colleotrichum truncatum): 0% | Observed efficacy (Alternaria solani): 0%

O=C1C2CC=CCC2C(=O)N1SC(Cl)(Cl)Cl (stereo not drawn) [Captan, N-(trichloromethylthio)cyclohex-4-ene-1,2-dicarboximide]
inhibition of growth at 1 ppm (Colleotrichum truncatum; 7 days after inoculation): 49%

CO/N=C(/C1=NOCCO1)c1ccccc1Oc1ncnc(Oc2ccccc2Cl)c1F [Fluoxastrobin, (E)-{2-[6-(2-chlorophenoxy)-5-fluoropyrimidin-4-yloxy]phenyl}(5,6-dihydro-1,4,2-dioxazin-3-yl)methanone O-methyloxime]
inhibition of growth at 1 ppm (Colleotrichum truncatum; 7 days after inoculation): 32%

CC(C)NC(=O)N1CC(=O)N(c2cc(Cl)cc(Cl)c2)C1=O [Iprodion, N-isopropyl-3-(3,5-dichlorophenyl)-2,4-dioxoimidazolidine-1-carboxamide]
inhibition of growth at 1 ppm (Colleotrichum truncatum; 7 days after inoculation): 7%

CC1(C)CCC(Cc2ccc(Cl)cc2)C1(O)Cn1cncn1 (stereo not drawn) [Metconazol, 5-(4-chlorobenzyl)-2,2-dimethyl-1-[1,2,4]triazol-1-ylmethylcyclopentanol]
Observed efficacy (Pyricularia oryzae; 0.063 ppm): 0% | Observed efficacy (Pyricularia oryzae; 0.25 ppm): 5% | Observed efficacy (Fusarium culmorum): 31%

COC=C(C(=O)OC)c1ccccc1COc1cccc(C(F)(F)F)n1 [Picoxystrobin, methyl 3-methoxy-2-[2-(6-trifluoromethylpyridin-2-yloxymethyl)phenyl]-acrylate]
inhibition of growth at 0.25 ppm (Colleotrichum truncatum; 0.25 ppm, 7 days after inoculation): 32%

Cc1cc(C)nc(Nc2ccccc2)n1 [Pyrimethanil, 4,6-dimethylpyrimidin-2-ylphenylamine]
inhibition of growth at 4 ppm (Colleotrichum truncatum; [1]): 7%

CC(C)(C)C(O)(CCc1ccc(Cl)cc1)Cn1cncn1 (stereo not drawn) [Tebuconazole, 1-(4-chlorophenyl)-4,4-dimethyl-3-[1,2,4]triazol-1-ylmethylpentan-3-ol]
inhibition of growth at 4 ppm (Colleotrichum truncatum; [1]): 0% | Observed efficacy (Alternaria solani): 0%

CC1(C)CC/C(=C\c2ccc(Cl)cc2)C1(O)Cn1cncn1 (stereo not drawn) [Triticonazol, (5E)-5-[(4-chlorophenyl)methylene]-2,2-dimethyl-1-(1H-1,2,4-triazol-1-ylmethyl)cyclopentanol]
inhibition of growth at 1 ppm (Colleotrichum truncatum; 7 days after inoculation): 7%
